Reference: article PMC7156724, “Potent BRD4 inhibitor suppresses cancer cell-macrophage interaction” (Nature Communications, 2020)
Several values for one entry are separate records, joined by “and”; a condition that tells them apart may be missing. Identical values can stand only once. Like-named read-outs stand apart in the source and are kept apart here.

Experiments:
[1] = system: BRD4 binding to the HIF1A promoter; assay: BRD4 ChIP-qPCR of the HIF1A promoter in A2780 cells; assay type: cell-based, human
Description: Fig. 7 NHWD-870 inhibited CSF1 expression through suppressing BRD4 and HIF1α in tumor cells. a, b Representative western blot analysis of control (Ctrl) and BRD4 knockout (KO) A375 and A2780 cells exposed to 20% or 1% O2 for 24 hours. Selected from three independent experiments. c, d Representative western blot analysis of A375 and A2780 cells treated with DMSO or 25 nM NHWD-870 and exposed to 20% or 1% O2 for 24 h. Selected from three independent experiments. e Relative HIF1 luciferase reporter activity in control (Ctrl), BRD4 knockout (KO), or NHWD-870 treated A375 and A2780 cells exposed to 20% or 1% O2 for 24 h. Data are presented as mean ± SEM from three independent experiments. f RT-qPCR analyses of CSF1 in control (Ctrl), BRD4 knockout (KO), or NHWD-870 treated A375 and A2780 cells exposed to 20% or 1% O2 for 24 hours. Data are presented as mean ± SEM from three independent experiments. g RT-qPCR analyses of HIF1A in A375 or A2780 cells treated with 15 nM NHWD-870 or DMSO control for 24 h. Data are presented as mean ± SEM from three independent experiments. h Genome browser view of BRD4 ChIP-seq peaks on the HIF1A promoter. Shown are BRD4 ChIP and input control of A375 cells (top panel) and BRD4 ChIP of MDA-MB231 cells treated with DMSO or JQ-1 (bottom panel). i BRD4 ChIP-qPCR analyses of the HIF1A promoter in A2780 cells treated with DMSO or NHWD-870 for 72 h. Data are presented as mean ± SEM from three independent experiments. j RT-qPCR analyses of CSF1 in A375 and A2780 cells were transiently transduced with HIF1α, then exposed to 1% O2 for 24 h. Ctrl, Control. Data are presented as mean ± SEM from three independent experiments. k A model showing the effects of NHWD-870 on cancer cell-TAM interaction. NHWD-870 inhibits the proliferation and survival of TAMs partly by inhibiting BRD4 activity, HIF1α expression, and CSF1 secretion by tumor cells, and downregulating CSF1R mediated ERK and PI3K/AKT signaling in TAMs. p values were calculated using two-tailed, unpaired t tests in this figure. *p < 0.05; **p < 0.01; ***p < 0.001. […]

[2] = Concentration in lungs and tumors of H526 xenograft model; assay type: in vivo, mouse; details: for concentration at 8 h / concentration at 24 h: female, BALB/c nude, mouse, oral
Excerpt: Supplementary Figure 7. Pharmacokinetic profile of NHWD-870 using mouse and rat models. […]
98615821 on day 21. These mice were administrated the indicated drug daily for 21 days. Data are represented as mean ± SEM of 3 independent experiments. Source data are provided as a Source Data file. […]
9. In vivo pharmacokinetics study. Mouse and SD rat models were used to evaluate pharmacokinetic property of NHWD-870. NHWD-870 was administrated […]
Concentration of drugs in plasma, lung and tumor tissues were measured for the indicated time. […]

SMILES: Cc1nnn(C)c1-c1cnc2c3c4cnn(C)c4ccc3n([C@H](c3ccccc3)C3CCOCC3)c2c1 [NHWD-870]
- ChIP-qPCR enrichment relative to input, IgG (Fig.7i) ([1]; A2780, 15nM 3 days): 0.411 and 0.4665 and 0.4566
- ChIP-qPCR enrichment relative to input, anti-BRD4 (Fig.7i) ([1]; A2780, 15nM 3 days): 0.646 and 0.721 and 0.6555
- BRD4 binding to the HIF1A promoter (ChIP-qPCR) ([1]; A2780 cells, 15nM, 72 h): decreased BRD4 binding to the HIF1A promoter
- Analyte Concentration in Tumor Homogenate ([2]; Group 2, 3 mg/kg QD, 8h, individual animals): 51.4 ng/mL and 12.9 ng/mL and 16.6 ng/mL
- Analyte Concentration in Lung Homogenate ([2]; Group 2, 3 mg/kg QD, 8h, individual animals, LLOQ 1 ng/mL): 13.8 ng/mL and 4.51 ng/mL and 8.51 ng/mL
- Analyte Concentration in Lung ([2]; Group 2, 3 mg/kg QD, 8h, individual animals, LLOQ 10 ng/g): 138 ng/g and 45.1 ng/g and 85.1 ng/g
- Analyte Concentration in Tumor ([2]; Group 2, 3 mg/kg QD, 8h, individual animals, dilution factor 10): 514 ng/g and 129 ng/g and 166 ng/g
- Analyte Concentration in Tumor Homogenate ([2]; Group 2, 3 mg/kg QD, 24h, individual animals): 3.37 ng/mL and 2.3 ng/mL and 5.48 ng/mL
- Analyte Concentration in Lung Homogenate ([2]; Group 2, 3 mg/kg QD, 24h, individual animals, LLOQ 1 ng/mL): BQL
- Analyte Concentration in Lung ([2]; Group 2, 3 mg/kg QD, 24h, individual animals, LLOQ 10 ng/g): BQL
- Analyte Concentration in Tumor ([2]; Group 2, 3 mg/kg QD, 24h, individual animals, dilution factor 10): 33.7 ng/g and 23 ng/g and 54.8 ng/g
- Analyte Concentration in Tumor Homogenate ([2]; Group 3, 1.5 mg/kg QD, 8h, individual animals): 19.2 ng/mL and 22.1 ng/mL
- Analyte Concentration in Lung Homogenate ([2]; Group 3, 1.5 mg/kg QD, 8h, individual animals, LLOQ 1 ng/mL): 6.31 ng/mL and 9.86 ng/mL
- Analyte Concentration in Lung ([2]; Group 3, 1.5 mg/kg QD, 8h, individual animals, LLOQ 10 ng/g): 63.1 ng/g and 98.6 ng/g
- Analyte Concentration in Tumor ([2]; Group 3, 1.5 mg/kg QD, 8h, individual animals, dilution factor 10): 192 ng/g and 221 ng/g
- Analyte Concentration in Tumor Homogenate ([2]; Group 3, 1.5 mg/kg QD, 24h, individual animals): 2.34 ng/mL and 1.67 ng/mL
- Analyte Concentration in Lung Homogenate ([2]; Group 3, 1.5 mg/kg QD, 24h, individual animals, LLOQ 1 ng/mL): BQL
- Analyte Concentration in Lung ([2]; Group 3, 1.5 mg/kg QD, 24h, individual animals, LLOQ 10 ng/g): BQL
- Analyte Concentration in Tumor ([2]; Group 3, 1.5 mg/kg QD, 24h, individual animals, dilution factor 10): 23.4 ng/g and 16.7 ng/g
- Analyte Concentration in Tumor Homogenate ([2]; Group 4, 3 mg/kg Q2D, 8h, individual animals): 82.3 ng/mL and 21.5 ng/mL and 23.8 ng/mL
- Analyte Concentration in Lung Homogenate ([2]; Group 4, 3 mg/kg Q2D, 8h, individual animals, LLOQ 1 ng/mL): 49.2 ng/mL and 8.34 ng/mL and 15.8 ng/mL
- Analyte Concentration in Lung ([2]; Group 4, 3 mg/kg Q2D, 8h, individual animals, LLOQ 10 ng/g): 492 ng/g and 83.4 ng/g and 158 ng/g
- Analyte Concentration in Tumor ([2]; Group 4, 3 mg/kg Q2D, 8h, individual animals, dilution factor 10): 823 ng/g and 215 ng/g and 238 ng/g
- Analyte Concentration in Tumor Homogenate ([2]; Group 4, 3 mg/kg Q2D, 24h, individual animals): 6.96 ng/mL and 4.06 ng/mL and 14.6 ng/mL
- Analyte Concentration in Lung Homogenate ([2]; Group 4, 3 mg/kg Q2D, 24h, individual animals, LLOQ 1 ng/mL): 6.96 ng/mL and BQL and 2.42 ng/mL
- Analyte Concentration in Lung ([2]; Group 4, 3 mg/kg Q2D, 24h, individual animals, LLOQ 10 ng/g): 69.6 ng/g and BQL and 24.2 ng/g
- Analyte Concentration in Tumor ([2]; Group 4, 3 mg/kg Q2D, 24h, individual animals, dilution factor 10): 69.6 ng/g and 40.6 ng/g and 146 ng/g
- penetration into the lungs and SCLC tumors ([2]; H526 xenograft model, oral 3 mg/kg daily for 21 days): good penetration into the lungs and SCLC tumors
- concentration at 8 h ([2]; lung homogenate, 1.5 mg/kg, Group 3, 1.5 mg/kg QD, 8h, individual animals, LLOQ 1 ng/mL, read-out: Analyte Concentration in Lung Homogenate): 5.65 ng/mL
- concentration at 24 h ([2]; lung homogenate, 3 mg/kg, Group 2, 3 mg/kg QD, 24h, individual animals, LLOQ 1 ng/mL, read-out: Analyte Concentration in Lung Homogenate): 1.12 ng/mL
- concentration at 8 h ([2]; lung, 1.5 mg/kg, Group 3, 1.5 mg/kg QD, 8h, individual animals, LLOQ 10 ng/g, read-out: Analyte Concentration in Lung): 56.5 ng/g
- concentration at 8 h ([2]; lung, 1.5 mg/kg, Group 3, 1.5 mg/kg QD, 8h, mean, read-out: Mean Concentration in Lung): 72.7 ng/g
- concentration at 8 h ([2]; lung, 3 mg/kg, Group 2, 3 mg/kg QD, 8h, mean, read-out: Mean Concentration in Lung): 89.4 ng/g
- concentration at 24 h ([2]; lung, 3 mg/kg, Group 2, 3 mg/kg QD, 24h, individual animals, LLOQ 10 ng/g, read-out: Analyte Concentration in Lung): 11.2 ng/g
- concentration at 8 h ([2]; lung, 3 mg/kg, Group 4, 3 mg/kg Q2D, 8h, mean, read-out: Mean Concentration in Lung): 244 ng/g
- concentration at 24 h ([2]; lung, 3 mg/kg, Group 4, 3 mg/kg Q2D, 24h, mean, read-out: Mean Concentration in Lung): 46.9 ng/g
- concentration at 8 h ([2]; tumor homogenate, 1.5 mg/kg, Group 3, 1.5 mg/kg QD, 8h, individual animals, read-out: Analyte Concentration in Tumor Homogenate): 14.3 ng/mL
- concentration at 24 h ([2]; tumor homogenate, 1.5 mg/kg, Group 3, 1.5 mg/kg QD, 24h, individual animals, read-out: Analyte Concentration in Tumor Homogenate): 2.06 ng/mL
- concentration at 8 h ([2]; tumor, 1.5 mg/kg, Group 3, 1.5 mg/kg QD, 8h, individual animals, dilution factor 10, read-out: Analyte Concentration in Tumor): 143 ng/g
- concentration at 8 h ([2]; tumor, 1.5 mg/kg, Group 3, 1.5 mg/kg QD, 8h, mean, read-out: Mean Concentration in Tumor): 185 ng/g
- concentration at 24 h ([2]; tumor, 1.5 mg/kg, Group 3, 1.5 mg/kg QD, 24h, individual animals, dilution factor 10, read-out: Analyte Concentration in Tumor): 20.6 ng/g
- concentration at 24 h ([2]; tumor, 1.5 mg/kg, Group 3, 1.5 mg/kg QD, 24h, mean, read-out: Mean Concentration in Tumor): 20.2 ng/g
- concentration at 8 h ([2]; tumor, 3 mg/kg, Group 2, 3 mg/kg QD, 8h, mean, read-out: Mean Concentration in Tumor): 270 ng/g
- concentration at 24 h ([2]; tumor, 3 mg/kg, Group 2, 3 mg/kg QD, 24h, mean, read-out: Mean Concentration in Tumor): 37.2 ng/g
- concentration at 8 h ([2]; tumor, 3 mg/kg, Group 4, 3 mg/kg Q2D, 8h, mean, read-out: Mean Concentration in Tumor): 425 ng/g
- concentration at 24 h ([2]; tumor, 3 mg/kg, Group 4, 3 mg/kg Q2D, 24h, mean, read-out: Mean Concentration in Tumor): 85.4 ng/g
